Experimental data as given in patent publication US8597618B1, “Dentifrice composition” (Toms's of Maine, Inc., priority 2012, dated 2013).
Where two headings read alike, the source gives them in different places.

Columns and labels:
[1] = Foaming capability of individual surfactant components admixed with water and agitated; type: physicochemical; conditions: for Foaming ability: numerical score, 1 representing an excellent foamer and 5 a poor foamer
Method: The foaming ability was determined by a numerical score, 1 representing an excellent foamer and 5 representing a poor foamer

[2] = test system: EpiOral ORL-200 model; assay: EpiOral in Vitro Irritation Test Method (EpiOral ORL-200 model); conditions: for ET-50 Time: time at which 50% of cells are viable, test terminated at 240 minutes
Method: (§1) To evaluate the potential irritancy of the dentifrice formulae, surfactant components were diluted in water and tested using an EpiOral in Vitro Irritation Test Method, in particular the EpiOral ORL-200 model, a known model for testing irritant potential of dentifrice components.
(§2) In the EpiOral test, the dentifrice components were tested to determine the parameter “ET-50” which represents the time at which 50% of cells are viable: the higher the ET-50 time then the less irritating the material.
(§3) Dentifrice compositions incorporating different surfactant systems were also subjected to the EpiOral test.

[3] = test system: EpiOral ORL-200 model
Method: as §1, §2, §3

Row | Compound | Foaming ability [1] | ET-50 Time ([2]; surfactant component 1 wt % in water) | ET-50 Time ([2]; surfactant component 2 wt % in water) | potential irritancy ([2]; surfactant components in water at different concentrations, in words) | foaming ability as compared to sodium lauryl sulfate ([1]; individual surfactant components, in words) | ET-50 Time [3] | potential irritancy [3]
1 | CCCCCCCCCCCCOS(=O)(=O)[O-].[Na+] [Sodium lauryl sulfate, sodium lauryl sulfate] | 1 | 115.4 min | 48.3 min | high |  |  | 
2 | lauryl glucoside | 3 |  |  |  | significantly poorer | >240 min | very low
